Laboratory results reported in ChEMBL document CHEMBL6074667, “Discovery and Optimization of First-in-Class Molecular Glue Degraders of the WIZ Transcription Factor for Fetal Hemoglobin Induction to Treat Sickle Cell Disease” (J Med Chem, 2024).
In brackets after ≈: the same amount, converted by molar mass. Activity calls are given as the source filed them. No cut-off for these calls is given here.

Assays:
[1] = biological target: T1, Protein cereblon/Protein Wiz (Homo sapiens, UniProt Q96SW2+O95785); assay: Molecular glue activity at CRBN/WIZ in human CD34-positive derived primary erythroblast cells assessed as induction of WIZ degradation by measuring maximal efficacy measured after 24 hrs by flow cytometric analysis relative to control; type: cell-based
Target sequence in this assay (O95785 whole entry, looked up): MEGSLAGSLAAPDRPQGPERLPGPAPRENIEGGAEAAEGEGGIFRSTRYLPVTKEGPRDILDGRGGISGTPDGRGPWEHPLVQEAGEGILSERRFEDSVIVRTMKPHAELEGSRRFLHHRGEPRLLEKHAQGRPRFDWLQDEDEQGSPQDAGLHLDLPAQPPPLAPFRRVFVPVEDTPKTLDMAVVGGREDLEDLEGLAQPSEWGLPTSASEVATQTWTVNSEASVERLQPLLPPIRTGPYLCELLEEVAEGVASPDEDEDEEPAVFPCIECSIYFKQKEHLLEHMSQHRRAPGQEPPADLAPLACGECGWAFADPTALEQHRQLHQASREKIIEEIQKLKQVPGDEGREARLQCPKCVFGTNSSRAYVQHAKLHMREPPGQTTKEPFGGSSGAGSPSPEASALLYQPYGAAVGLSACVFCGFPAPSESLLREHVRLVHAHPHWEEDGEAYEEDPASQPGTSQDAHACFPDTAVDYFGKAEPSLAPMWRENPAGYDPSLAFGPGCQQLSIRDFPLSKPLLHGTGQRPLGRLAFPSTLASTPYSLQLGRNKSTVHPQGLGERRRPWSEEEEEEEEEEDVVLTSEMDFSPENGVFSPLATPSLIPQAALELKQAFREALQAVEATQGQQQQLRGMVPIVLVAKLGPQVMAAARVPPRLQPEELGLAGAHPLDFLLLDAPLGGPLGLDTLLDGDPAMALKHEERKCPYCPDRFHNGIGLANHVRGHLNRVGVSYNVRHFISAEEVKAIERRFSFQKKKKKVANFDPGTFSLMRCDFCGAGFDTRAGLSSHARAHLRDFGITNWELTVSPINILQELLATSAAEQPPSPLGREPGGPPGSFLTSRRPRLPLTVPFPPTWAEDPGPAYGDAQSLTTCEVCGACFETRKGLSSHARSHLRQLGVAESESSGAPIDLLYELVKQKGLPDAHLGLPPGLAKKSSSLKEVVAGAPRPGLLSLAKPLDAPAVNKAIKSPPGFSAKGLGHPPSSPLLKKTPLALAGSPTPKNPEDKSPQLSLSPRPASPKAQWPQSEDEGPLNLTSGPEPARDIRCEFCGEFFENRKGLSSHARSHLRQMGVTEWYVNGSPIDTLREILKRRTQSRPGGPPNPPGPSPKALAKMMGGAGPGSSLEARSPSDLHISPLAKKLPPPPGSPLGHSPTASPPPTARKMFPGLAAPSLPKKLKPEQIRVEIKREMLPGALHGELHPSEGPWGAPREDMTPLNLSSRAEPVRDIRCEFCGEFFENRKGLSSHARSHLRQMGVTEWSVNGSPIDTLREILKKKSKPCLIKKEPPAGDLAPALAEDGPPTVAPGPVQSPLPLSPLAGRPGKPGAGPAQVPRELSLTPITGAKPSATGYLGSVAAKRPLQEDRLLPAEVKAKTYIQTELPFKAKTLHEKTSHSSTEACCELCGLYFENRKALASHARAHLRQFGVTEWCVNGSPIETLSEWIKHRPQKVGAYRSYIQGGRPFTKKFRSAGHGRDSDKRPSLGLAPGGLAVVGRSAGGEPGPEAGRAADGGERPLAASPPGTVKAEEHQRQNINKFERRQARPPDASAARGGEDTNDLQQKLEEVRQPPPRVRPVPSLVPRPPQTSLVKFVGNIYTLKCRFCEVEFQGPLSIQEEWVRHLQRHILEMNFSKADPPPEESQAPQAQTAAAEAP
Target sequence in this assay (Q96SW2 whole entry, looked up): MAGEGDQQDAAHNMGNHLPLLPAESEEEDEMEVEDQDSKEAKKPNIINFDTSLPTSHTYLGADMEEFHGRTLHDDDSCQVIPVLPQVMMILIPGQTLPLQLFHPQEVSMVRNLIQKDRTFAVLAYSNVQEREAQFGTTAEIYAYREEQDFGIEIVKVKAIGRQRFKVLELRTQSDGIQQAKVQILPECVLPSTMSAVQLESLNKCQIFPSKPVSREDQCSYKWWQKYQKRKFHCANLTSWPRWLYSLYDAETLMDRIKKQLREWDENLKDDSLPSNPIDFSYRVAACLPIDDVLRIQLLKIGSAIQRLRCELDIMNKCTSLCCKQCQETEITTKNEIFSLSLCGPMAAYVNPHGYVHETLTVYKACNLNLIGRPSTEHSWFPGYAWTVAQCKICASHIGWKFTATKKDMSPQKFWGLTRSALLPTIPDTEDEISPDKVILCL

[2] = biological target: T1, Protein cereblon/Protein Wiz; assay: In vivo molecular glue activity at CRBN/WIZ in immunocompromised naive NBSGW mouse xenografted with human CD34 positive HSPC cells assessed as fold increase in Hbf-positive cells in moCD45 negative hCD45negative CD71positive CD235A positive bone marrow cells at 0.01 to 1 mg/kg, po administered once daily for 21 days by staining based analysis; type: functional, organism-based; settings: dose 0.01-1 mg/kg, time 21.0 day
Target sequence in this assay (O95785 whole entry, looked up): as the sequence (O95785 whole entry, looked up) above
Target sequence in this assay (Q96SW2 whole entry, looked up): as the sequence (Q96SW2 whole entry, looked up) above

[3] = biological target: T2, Protein cereblon/Sal-like protein 4 (Homo sapiens, UniProt Q96SW2+Q9UJQ4); assay: Molecular glue activity at CRBN/HiBiT-tagged SALL4 (unknown origin) expressed in human GripTite 293 MSR cells assessed as induction of SALL4 degradation incubated for 20 hrs by Nano-Glo HiBiT-Lytic reagent based luminescence plate reader analysis relative to control; type: cell-based; parameters: concentration or dose not given beside the values
[4] = biological target: T1, Protein cereblon/Protein Wiz; assay: In vivo molecular glue activity at CRBN/WIZ in immunocompromised naive NBSGW mouse xenografted with human CD34 positive HSPC cells assessed as induction of WIZ degradation in peripheral blood human […] B cells administered orally once daily for 21 days by staining based analysis; type: functional, organism-based; settings: route po, time 21.0 day
Target sequence in this assay (O95785 whole entry, looked up): as the sequence (O95785 whole entry, looked up) above
Target sequence in this assay (Q96SW2 whole entry, looked up): as the sequence (Q96SW2 whole entry, looked up) above

[5] = biological target: T1, Protein cereblon/Protein Wiz; assay: In vivo molecular glue activity at CRBN/WIZ in immunocompromised naive NBSGW mouse xenografted with human CD34 positive HSPC cells assessed as induction of WIZ degradation in peripheral blood human C19-positive B cells by measuring maximal efficacy at 0.01 to 1 mg/kg, po administered once daily for 21 days by staining based analysis relative to control; type: functional, organism-based; settings: dose 0.01-1 mg/kg, time 21.0 day
Target sequence in this assay (O95785 whole entry, looked up): as the sequence (O95785 whole entry, looked up) above
Target sequence in this assay (Q96SW2 whole entry, looked up): as the sequence (Q96SW2 whole entry, looked up) above

[6] = biological target: T1, Protein cereblon/Protein Wiz; assay: Molecular glue activity at CRBN/WIZ in human CD34-positive derived primary erythroblast cells assessed as increase in fetal hemoglobin positive cells in CD71+ CD235a+ subpopulation measured after 7 days by flow cytometric analysis relative to control; type: cell-based; settings: time 7.0 day
Target sequence in this assay (O95785 whole entry, looked up): as the sequence (O95785 whole entry, looked up) above
Target sequence in this assay (Q96SW2 whole entry, looked up): as the sequence (Q96SW2 whole entry, looked up) above

[7] = biological target: T3, Protein cereblon/Eukaryotic peptide chain release factor GTP-binding subunit ERF3A (Homo sapiens, UniProt Q96SW2+P15170); assay: Molecular glue activity at CRBN/HiBiT-tagged GSPT1 (unknown origin) expressed in human GripTite 293 MSR cells assessed as induction of GSPT1 degradation incubated for 20 hrs by Nano-Glo HiBiT-Lytic reagent based luminescence plate reader analysis relative to control; type: cell-based; parameters: concentration or dose not given beside the values
Target sequence in this assay (P15170 whole entry, looked up): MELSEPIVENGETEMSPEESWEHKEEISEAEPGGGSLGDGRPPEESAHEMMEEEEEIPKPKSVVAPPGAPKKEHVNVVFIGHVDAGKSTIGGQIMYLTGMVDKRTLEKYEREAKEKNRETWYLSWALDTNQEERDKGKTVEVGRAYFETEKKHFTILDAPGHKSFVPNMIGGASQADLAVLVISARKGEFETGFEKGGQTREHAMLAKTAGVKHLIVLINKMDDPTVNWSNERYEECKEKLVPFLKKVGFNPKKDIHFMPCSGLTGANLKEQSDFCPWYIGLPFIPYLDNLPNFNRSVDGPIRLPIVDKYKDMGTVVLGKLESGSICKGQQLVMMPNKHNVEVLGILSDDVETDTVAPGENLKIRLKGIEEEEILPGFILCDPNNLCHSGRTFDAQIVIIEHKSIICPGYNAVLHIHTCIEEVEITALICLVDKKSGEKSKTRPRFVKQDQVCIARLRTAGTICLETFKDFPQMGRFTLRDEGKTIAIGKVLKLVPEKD
Target sequence in this assay (Q96SW2 whole entry, looked up): as the sequence (Q96SW2 whole entry, looked up) above

[8] = biological target: T1, Protein cereblon/Protein Wiz; assay: Molecular glue activity at CRBN/HiBiT-tagged WIZ (unknown origin) expressed in HEK293T cells assessed as induction of WIZ degradation incubated for 18 hrs by Nano-Glo HiBiT-Lytic reagent based luminescence plate reader analysis relative to control; type: cell-based; parameters: concentration or dose not given beside the values
Target sequence in this assay (O95785 whole entry, looked up): as the sequence (O95785 whole entry, looked up) above
Target sequence in this assay (Q96SW2 whole entry, looked up): as the sequence (Q96SW2 whole entry, looked up) above

Cereblon/Ikaros [9] = biological target: T4, Cereblon/Ikaros (Homo sapiens, UniProt Q96SW2+Q13422); assay: Molecular glue activity at CRBN/HiBiT-tagged IKZF1 (unknown origin) expressed in human GripTite 293 MSR cells assessed as induction of […] incubated for 20 hrs by Nano-Glo HiBiT-Lytic reagent based luminescence plate reader analysis relative to control; type: cell-based; parameters: concentration or dose not given beside the values
[10] = biological target: T2, Protein cereblon/Sal-like protein 4; assay: Molecular glue activity at CRBN/HiBiT-tagged SALL4 (unknown origin) expressed in human GripTite 293 MSR cells assessed as induction of SALL4 degradation incubated for 20 hrs by Nano-Glo HiBiT-Lytic reagent based luminescence plate reader analysis; type: cell-based
Target sequence in this assay (Q96SW2 whole entry): as the sequence (Q96SW2 whole entry, looked up) above
Target sequence in this assay (Q9UJQ4 whole entry): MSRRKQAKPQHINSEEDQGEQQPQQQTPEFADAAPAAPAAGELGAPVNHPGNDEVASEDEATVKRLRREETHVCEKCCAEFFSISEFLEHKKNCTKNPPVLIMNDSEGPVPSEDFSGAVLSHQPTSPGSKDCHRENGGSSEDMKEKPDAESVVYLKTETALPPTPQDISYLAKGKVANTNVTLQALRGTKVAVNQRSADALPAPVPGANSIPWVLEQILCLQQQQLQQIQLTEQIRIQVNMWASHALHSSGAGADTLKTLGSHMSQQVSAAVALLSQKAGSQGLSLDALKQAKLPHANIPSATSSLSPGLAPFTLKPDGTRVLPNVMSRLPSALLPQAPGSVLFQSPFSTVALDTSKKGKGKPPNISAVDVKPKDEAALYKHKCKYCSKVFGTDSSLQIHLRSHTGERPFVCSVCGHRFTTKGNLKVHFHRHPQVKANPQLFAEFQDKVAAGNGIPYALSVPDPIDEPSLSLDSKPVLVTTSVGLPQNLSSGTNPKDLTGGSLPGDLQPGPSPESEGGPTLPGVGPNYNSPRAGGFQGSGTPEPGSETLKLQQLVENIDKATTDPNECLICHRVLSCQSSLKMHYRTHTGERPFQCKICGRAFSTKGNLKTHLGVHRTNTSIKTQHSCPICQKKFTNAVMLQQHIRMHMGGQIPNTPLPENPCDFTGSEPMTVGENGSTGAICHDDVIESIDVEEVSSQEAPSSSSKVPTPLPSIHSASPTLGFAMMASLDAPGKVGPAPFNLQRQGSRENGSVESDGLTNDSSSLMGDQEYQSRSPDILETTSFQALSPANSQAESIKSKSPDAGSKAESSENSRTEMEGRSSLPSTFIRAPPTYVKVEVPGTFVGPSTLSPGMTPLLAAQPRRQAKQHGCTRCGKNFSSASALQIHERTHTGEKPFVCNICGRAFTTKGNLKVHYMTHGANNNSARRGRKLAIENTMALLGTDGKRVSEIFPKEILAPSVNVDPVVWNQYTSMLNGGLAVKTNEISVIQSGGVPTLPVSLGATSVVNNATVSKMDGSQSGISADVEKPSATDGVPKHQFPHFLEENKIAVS

Cereblon/Ikaros [11] = biological target: T4, Cereblon/Ikaros; assay: Molecular glue activity at CRBN/HiBiT-tagged IKZF1 (unknown origin) expressed in human GripTite 293 MSR cells assessed as induction of […] incubated for 20 hrs by Nano-Glo HiBiT-Lytic reagent based luminescence plate reader analysis; type: cell-based
[12] = biological target: T3, Protein cereblon/Eukaryotic peptide chain release factor GTP-binding subunit ERF3A; assay: Molecular glue activity at CRBN/HiBiT-tagged GSPT1 (unknown origin) expressed in human GripTite 293 MSR cells assessed as induction of GSPT1 degradation incubated for 20 hrs by Nano-Glo HiBiT-Lytic reagent based luminescence plate reader analysis; type: cell-based
[13] = biological target: T1, Protein cereblon/Protein Wiz; assay: Molecular glue activity at CRBN/HiBiT-tagged WIZ (unknown origin) expressed in HEK293T cells assessed as induction of WIZ degradation incubated for 18 hrs by Nano-Glo HiBiT-Lytic reagent based luminescence plate reader analysis; type: cell-based
[14] = AUClast in C57BL/6 mouse at 3 mg/kg, po; type: ADME, organism-based; settings: in vivo
[15] = Cmax in C57BL/6 mouse at 3 mg/kg, po; type: ADME, organism-based; settings: in vivo
[16] = Intrinsic clearance in human liver microsomes; type: ADME, Microsome; settings: read-out: CLH
[17] = Volume of distribution at steady state in C57BL/6 mouse at 1 mg/kg, iv; type: ADME, organism-based; settings: in vivo, read-out: Vdss
[18] = Solubility of compound in potassium phosphate buffer at pH 6.8 incubated for 16 to 24 hrs by high-throughput Agilent Rapidfire-MS/MS analysis; type: physicochemical; settings: time 16-24 hrs
[19] = Protein binding in mouse plasma; type: ADME, cell-free; settings: read-out: PPB (converted)
[20] = Tmax in C57BL/6 mouse at 3 mg/kg, po or 1 mg/kg, iv; type: ADME, organism-based; settings: in vivo
[21] = Apparent permeability across apical to basolateral side in low efflux MDCK cells assessed as drug recovery at 10 uM incubated for 2 hrs by LC-MS analysis; type: ADME, cell-based, Canis lupus familiaris; settings: dog, read-out: Drug recovery
[22] = Clearance in C57BL/6 mouse at 1 mg/kg, iv; type: ADME, organism-based; settings: in vivo
[23] = Intrinsic clearance in mouse liver microsomes; type: ADME, Microsome; settings: read-out: CLH
[24] = biological target: T1, Protein cereblon/Protein Wiz; assay: Molecular glue activity at CRBN/WIZ in human CD34-positive derived primary erythroblast assessed as induction of WIZ degradation by flow cytometric analysis; type: cell-based
[25] = Protein binding in rat plasma; type: ADME, cell-free; settings: read-out: PPB (converted)
[26] = Bioavailability last in C57BL/6 mouse; type: ADME, organism-based; settings: in vivo
[27] = Half-life in C57BL/6 mouse at 1 mg/kg, iv; type: ADME, organism-based; settings: in vivo
[28] = biological target: T1, Protein cereblon/Protein Wiz; assay: Molecular glue activity at CRBN/WIZ in human CD34-positive derived primary erythroblast assessed as induction fetal hemoglobin by flow cytometric analysis; type: cell-based
[29] = Protein binding in human plasma; type: ADME, cell-free; settings: read-out: PPB (converted)
[30] = Apparent permeability across apical to basolateral side in low efflux MDCK cells at 10 uM incubated for 2 hrs by LC-MS analysis; type: ADME, cell-based, Canis lupus familiaris; settings: dog
[31] = Intrinsic clearance in rat liver microsomes; type: ADME, Microsome; settings: read-out: CLH

Activity [3] [%]	Activity [7] [%]	Activity [8] [%]	Activity (Cereblon/Ikaros [9]) [%]	DC50 [10] [µM]	DC50 (Cereblon/Ikaros [11]) [µM]	DC50 [12] [µM]	DC50 [13] [µM]	Structure (SMILES)	other results
26	< 10	87	< 10					CCN1C[C@H](C)C[C@@H](Oc2ccc3c(c2)CN(C2CCC(=O)NC2=O)C3=O)C1 (stereo in doubt; 10)	Emax [1]: 84%; fold change (FC) [2]: 5; Activity [4]: Dose-dependent-effect; Emax [5]: 60%; Activity [6]: 40%
11	< 10	82	< 10	> 50	> 50	> 50	0.008	CCN1CCC2(CC2)[C@@H](Oc2ccc3c(c2)CN(C2CCC(=O)NC2=O)C3=O)C1 (some centres undefined)	
28	< 10	77	< 10	> 50	> 50	> 50	0.026	CCN1CCC[C@@H](Oc2ccc3c(c2)CN(C2CCC(=O)NC2=O)C3=O)C1 (some centres undefined)	
58	< 11	93	< 11					C[C@@H](Oc1ccc2c(c1)CN(C1CCC(=O)NC1=O)C2=O)[C@H]1CCCCN1C (some centres undefined)	AUC(0-t) [14]: 0.115 µM·h; Cmax [15]: 24 nM; microsomal CLint [16]: < 25 µL/min/mg; Vd [17]: 2.9 L/kg; solubility [18]: 640 µM (≈ 247 µg/mL); fraction unbound [19]: > 0.8; Tmax [20]: 3 h; recovery at 2 h, 10 µM [21]: 66%; clearance [22]: 28 mL/min/kg; microsomal CLint [23]: < 25 µL/min/mg; Activity [24]: Active; fraction unbound [25]: 0.58; bioavailability [26]: 2.7%; half-life [27]: 1.9 h; Activity [28]: Active; fraction unbound [29]: 0.69; Papp A→B at 2 h, 10 µM [30]: 0.37 ×10⁻⁶ cm/s; microsomal CLint [31]: < 25 µL/min/mg
27	< 10	12	< 10	> 50	> 50	> 50	> 25	CCN1CCC[C@H](Oc2ccc3c(c2)CN(C2CCC(=O)NC2=O)C3=O)C1 (some centres undefined)	
15	< 10	78	< 10					CCN1C[C@H](C)C[C@@H](Oc2ccc3c(c2)CN(C2CCC(=O)NC2=O)C3=O)C1 (mixture of isomers)	
